Results taken from US20240002388A1, “PYRIMIDINONE COMPOUNDS AND USES THEREOF” (HUTCHISON MEDIPHARMA LIMITED, priority 2020, published 2024).

Each compound was assayed on L929 cell line (mouse fibroblastoma cell line) (assay: L929 cell viability assay (mTNF-α + Z-VAD-FMK induced necroptosis)). Conditions: L929 cells, mTNF-α 0.1 μg/mL + Z-VAD-FMK 5 μM, 20 hours, CellTiter-Glo.
Format: cell-based
How it was run: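 L929 cells (4.9×10^3/well) in 1% FBS MEM got compound (10 to 0.005 μM, 0.3% DMSO), then 5 μM Z-VAD-FMK for 1 h, then 0.1 μg/mL mTNF-α for 20 h at 37 °C. CellTiter-Glo luminescence was normalised between TNF/Z-VAD and unstimulated wells, and IC50 was curve-fitted.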

Row | SMILES | IC50
1 | CC(C)n1ncc2cnc(C(=O)NC3(c4ccc(-c5cncn([C@H]6C[C@@H](F)C6)c5=O)cc4)CC3)nc21 [Compound 88, N-(1-(4-(1-(cis-3-fluorocyclobutyl)-6-oxo-1,6-dihydropyrimidin-5-yl)phenyl)cyclopropyl)-1-i-propyl-1H-pyrazolo[3,4-d]pyrimidine-6-carboxamide] | 335 nM

Same assay, conditions: Mus musculus, L929, 20 h, L929 cells, mTNF-α 0.1 μg/mL + Z-VAD-FMK 5 μM, CellTiter-Glo

Row | SMILES | IC50
2 | CC(C)n1ncc2cnc(C(=O)NC3(c4ccc(-c5cncn(C6(C)CC6)c5=O)cc4)CC3)nc21 [Compound 78] | 44 nM
3 | CC(C)n1ncc2cnc(C(=O)NC3(c4ccc(-c5cncn(C6(C)CCC6)c5=O)cc4)CC3)nc21 [Compound 79] | 10 nM
4 | CC(C)n1ncc2cnc(C(=O)NC3(c4ccc(-c5cncn([C@H](C)C6CC6)c5=O)cc4)CC3)nc21 [Compound 84, (R)—N-(1-(4-(1-(1-cyclopropylethyl)-6-oxo-1,6-dihydropyrimidin-5-yl)phenyl)cyclopropyl)-1-i-propyl-1H-pyrazolo[3,4-d]pyrimidine-6-carboxamide] | 7 nM
5 | CC(C)n1ncc2cnc(C(=O)NC3(c4ccc(-c5cncn([C@@H](C)C6CC6)c5=O)cc4)CC3)nc21 [Compound 85, (S)—N-(1-(4-(1-(1-cyclopropylethyl)-6-oxo-1,6-dihydropyrimidin-5-yl)phenyl)cyclopropyl)-1-i-propyl-1H-pyrazolo[3,4-d]pyrimidine-6-carboxamide] | 13 nM
6 | CC(C)n1ncc2cnc(C(=O)NC3(c4ccc(-c5cncn(CC6(C)CC6)c5=O)cc4)CC3)nc21 [Compound 86] | 19 nM
7 | CC(C)n1ncc2cnc(C(=O)NC3(c4ccc(-c5cncn([C@H]6C[C@H](F)C6)c5=O)cc4)CC3)nc21 [Compound 87, N-(1-(4-(1-(trans-3-fluorocyclobutyl)-6-oxo-1,6-dihydropyrimidin-5-yl)phenyl)cyclopropyl)-1-i-propyl-1H-pyrazolo[3,4-d]pyrimidine-6-carboxamide] | 393 nM
8 | CC(C)n1cncc(-c2ccc(C3(NC(=O)c4ncc5cnn([C@H](C)C6CC6)c5n4)CC3)cc2)c1=O [Compound 89, (R)-1-(1-cyclopropylethyl)-N-(1-(4-(1-i-propyl-6-oxo-1,6-dihydropyrimidin-5-yl)phenyl)cyclopropyl)-1H-pyrazolo[3,4-d]pyrimidine-6-carboxamide] | 38 nM
9 | CC(C)n1cncc(-c2ccc(C3(NC(=O)c4ncc5cnn([C@@H](C)C6CC6)c5n4)CC3)cc2)c1=O [Compound 90, (S)-1-(1-cyclopropylethyl)-N-(1-(4-(1-i-propyl-6-oxo-1,6-dihydropyrimidin-5-yl)phenyl)cyclopropyl)-1H-pyrazolo[3,4-d]pyrimidine-6-carboxamide] | 12 nM
10 | CC(C)n1cncc(-c2ccc(C3(NC(=O)c4ncc5cnn(C(C)C)c5n4)CC3)c(F)c2Cl)c1=O [Compound 91] | 786 nM
11 | CC(C)n1cncc(-c2cc(F)c(C3(NC(=O)c4ncc5cnn(C(C)C)c5n4)CC3)c(F)c2)c1=O [Compound 92] | 3130 nM
12 | CC(C)n1cncc(-c2ccc(C3(NC(=O)c4ncc5cnn(C(C)C)c5n4)CC3)c(F)c2F)c1=O [Compound 93] | 148 nM
13 | CC(C)n1ncc2cnc(C(=O)NC3(c4cc(F)c(-c5cncn(CC6CC6)c5=O)cc4F)CC3)nc21 [Compound 94] | 50 nM
14 | CC(C)n1ncc2cnc(C(=O)NC3(c4ccc(-c5cncn(CC6CC6)c5=O)c(F)c4F)CC3)nc21 [Compound 95] | 145 nM
